Experimental data reported in patent publication US12054495B2, “Substituted macrocyclic compounds and related methods of treatment” (Alkermes, Inc., priority 2019, dated 2024).

Legend:
Format in all cases: in vitro ADME
[1] = tested on: MDR1; experiment: MDCK-MDR1 permeability assay; details: dog; for Papp A→B at 2 h, 3 μM: MDCK-MDR1, MDCK-MDR1 cells, apical to basolateral, 3 μM test compound, 2 hours at 37 degrees C; for efflux ratio at 2 h, 3 μM: MDCK-MDR1, Papp (basolateral to apical) divided by Papp (apical to basolateral), MDCK-MDR1 cells, read-out: Efflux ratio (ER)
Outline: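 Bidirectional transport across MDCK-MDR1 monolayers with test compound at 3 μM in HBSS, Lucifer Yellow 100 μM co-dosed as integrity marker; 2 h at 37 °C, donor and receiver quantified by LC-MS/MS. Papp = dQ/dt × 1/(A×C0); efflux ratio = Papp(B→A)/Papp(A→B), ER>2 taken as active transport.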

[2] = Hepatocytes stability assay (human hepatocytes); details: both sexes, cryopreserved hepatocytes, 1 μM test compound, 1×10^6 cell/mL, 37 degrees C, read-out: CLint (μL/min/million cells)
Outline: (§1)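 Cryopreserved pooled (50 donors, mixed gender) human hepatocytes at 1×10^6 cells/mL in Krebs-Henseleit buffer with 1 μM compound (0.1% DMSO), 37 degrees C, sampled 0–240 min. Parent depletion by LC-MS/MS; first-order fit gave T1/2 and CLint, scaled to hepatic clearance via well-stirred model (fu assumed 1); extraction ratio = CL,hep/liver blood flow.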

[3] = tested on: human hepatocytes; experiment: Hepatocytes stability assay (human hepatocytes); details: scaled hepatic clearance divided by liver blood flow, fu assumed unity
Outline: as §1

Papp A→B at 2 h, 3 μM [1] [×10⁻⁶ cm/s]	efflux ratio at 2 h, 3 μM [1]	hepatocyte CLint at 1 μM [2] [µL/min/1e6 cells]	Extraction Ratio (ER) [3]	Structure (SMILES)
0.72	36	12	0.64	CS(=O)(=O)N[C@@H]1CCCN2C(=O)COc3cccc(F)c3[C@H]3CC[C@H](CC3)OC[C@H]12 (racemic) [Compound 49]
5.9	4	51	0.88	COC(=O)N1CCC[C@H](NS(C)(=O)=O)[C@@H]1CO[C@H]1CC[C@@H](c2ccccc2)CC1 [methyl (2R,3S)-3-((methylsulfonyl)amino)-2-(((cis-4-phenylcyclohexyl)oxy)methyl)-piperidine-1-carboxylate, reference compound]
